Legend:
[1] = molecular target: T1, NUCB2 protein (Mus musculus, UniProt P81117); assay: Competitive binding experiment: small molecules compete with Bio78 (HLY179) for NUCB2; conditions: competitor final concentration 100 μM; HLY179 20 μM
T1 construct: Immediately the mouse full-length NUCB2 protein expressed in E. coli was purified; His tag (inferred from pET-28A vector, Ni-NTA purification and His antibody); made in house; host or cells: E. coli BL21-CodonPlus (DE3)
T1 sequence (P81117 25-420): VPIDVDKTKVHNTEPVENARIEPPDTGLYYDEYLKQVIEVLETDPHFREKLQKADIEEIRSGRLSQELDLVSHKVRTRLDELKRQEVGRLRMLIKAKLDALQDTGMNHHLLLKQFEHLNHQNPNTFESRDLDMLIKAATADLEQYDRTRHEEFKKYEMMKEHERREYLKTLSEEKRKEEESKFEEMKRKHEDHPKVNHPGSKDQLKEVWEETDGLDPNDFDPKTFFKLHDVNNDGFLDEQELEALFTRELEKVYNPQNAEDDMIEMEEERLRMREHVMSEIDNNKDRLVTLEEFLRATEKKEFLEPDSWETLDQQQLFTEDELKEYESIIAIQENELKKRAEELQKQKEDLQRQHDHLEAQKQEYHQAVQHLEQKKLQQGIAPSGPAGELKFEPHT
Protocol: When doing the combining experiments, (1) pre-treating Streptavidin-Agarose, washing Streptavidin-Agarose Beads with IP buffer, and spinning it on the rotor for 10 minutes. (2) Re-binding small molecules HLY179 (20 μM) and Streptavidin-Agarose Beads, spinning it in a refrigeration house at 4° C. for 1-2 hours. (3) When the previous step was performed for about 1 hour, the protein was pre-cleared at the same time, and the protein and the washed Streptavidin-Agarose were rotated in a refrigeration house at 4° C. for 30 minutes. (4) the Streptavidin-Agarose Beads binded with HLY179 was centrifuged, the supernatant was removed, washed again with 600 μL of IP buffer (rotated at 4° C. for 3 minutes), centrifuged, and the supernatant was removed carefully. (5) the pre-cleard protein was added and rotated in a refrigeration house at 4° C. for 2 hours. Washd twice with IP buffer 800 μL, 2 minutes each time (all rotated in a refrigeration house at 4° C.). After the last wash, the supernatant was removed, 40 μL of 2*loading was added and cooked for 10 minutes, stored at −20° C. When doing competitive binding experiments, in the third step while pre-treating the protein adding different small molecule compounds, the final concentration was 100 μM, and the rest was the same. Western Blot: Preparing the appropriate concentration of SDS-PAGE gel, adding protein sample for electrophoretic separation. […]

[2] = system: normal mice; assay: Body weight and daily food intake of normal mice under repeated dosing; format: in vivo, mouse; conditions: for body weight after treatment / daily food intake compared with the control group / reduction in total body weight / body weight before treatment: normal mice; for body weight before treatment: start
Protocol: Mice were intraperitoneally injected with DMSO or HLY72 (dissolved in DMSO) 25 μL within 2 hours before turning off the lamp. During the intragastric experiment, the high concentration of HLY72 dissolved in DMSO was dissolved in 10% cyclodextrin, and the total volume was 100 μL Volume by gavage, so that the final concentration of DMSO was less than 10%. The diet was weighed at the 3rd hour, the 6th hour, the 12th hour, and the 24th hour respectively after the lights out. The corresponding mouse body weight was also weighed at the same time before the daily administration. The fat content of mice was measured with the magnetic resonance fat content measuring instrument of the animal platform in SIBCB.
After screening better small-molecule compound and probably determining its key groups, whether HLY72 has a weight-loss effect has become the most wanted result immediately. For this problem, we directly used normal mice intraperitoneally injected with HLY72 for 5 consecutive days.
In order to further investigate whether the administration of HLY72 by oral gavage also has a weight-loss effect, and because of the convenience of oral administration, many drugs are taken orally. We have also considered one step more for future applications, so that the administration of oral gavage was used to see the effect of HLY72 on the body weight of normal mice. The same was 20 mg/kg HLY72 intragastric treatment for 5 days.
After confirming that HLY72 can indeed reduce the weight of mice, we examine two more questions: (1) Whether HLY72's weight-reducing effect is dose-dependent; (2) Whether HLY72-like molecule HLY103 not binding to NUCB2 has a weight-reducing effect. […] We also do the statistics on the daily food intake of the mice in these three days, which is consistent with the conclusion of the short-term statistics in the previous day.

[3] = system: NUCB2 gene knockout heterozygous mice; assay: Effect on NUCB2 gene knockout heterozygous mice; format: in vivo, mouse
Source text: Heterozygous mice prepared by the CRISPR-Cas9 system were purchased from Xiamen University. […] Heterozygous mice deleted 83 bases in E3 and confirmed by sequencing (FIG. 17c). In order to facilitate the experiment, for mice with 83 bases deleted, we designed primers to detect by PCR (FIG. 17b). Because of the failure to obtain NUCB2 knockout homozygous mice for multiple matches, only heterozygous mice can be used for research.

[4] = intraperitoneal 20 mg/kg, 5 consecutive days

Question: What does the source list for `C=Cc1cccc2c1N(C)Cc1cc3c(cc1-2)OCO3` [HLY72]?
Answer: compete with Bio78 for binding to NUCB2 [1]: can also compete; effect on body weight / weight loss ([2]; intraperitoneal, 3 consecutive days, HLY72 10 and 20 mg/kg, HLY103 20 mg/kg): concentration gradient; body weight after treatment [2, 4]: 23.37 ± 0.36 g; daily food intake compared with the control group [2, 4]: significantly reduced; reduction in total body weight [2, 4]: 9.21%±0.74%; body weight before treatment ([2]; intraperitoneal 20 mg/kg): 25.73 ± 0.29 g; body weight after treatment ([2]; oral gavage 20 mg/kg, 5 days): 23.14 ± 0.45 g; daily food intake compared with the control group ([2]; oral gavage 20 mg/kg, 5 days): decreased significantly; reduction in total body weight ([2]; oral gavage 20 mg/kg, 5 days): 8.43%±0.81%; body weight before treatment ([2]; oral gavage 20 mg/kg): 25.26 ± 0.37 g; effect on daily food intake in heterozygous mice [3]: reduced; effect on mouse weight in heterozygous mice [3]: reduced

From patent publication US20200385396A1, “Compond for treatment or prevention of obesity or diseases related to obesity, and application thereof” (SHANGHAI INSTITUTES FOR BIOLOGICAL SCIENCES, CHINESE …, priority 2017, published 2020)
